# Tests used:
# [1] = target: T1, human vasopressin V1a receptor subtype (Homo sapiens, UniProt P37288); assay: Vasopressin binding in Chinese Hamster Ovary cell membranes expressing human vasopressin V1a subtype receptors; conditions: 100 nM, CHO cell membranes, [3H]Manning ligand, values without parentheses
# T1 construct: host or cells: CHO cells (pZeoSV vector for the Thibonnier line)
# Method in brief: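 Membranes from CHO cells expressing human V1a receptor were incubated with [3H]Manning ligand (added as 20 μL of 8 nM) in pH 7.4 Tris buffer with MgCl2, BSA and protease inhibitors, 60 min at room temperature. Bound radioactivity was counted after filtration; values are percent inhibition at a stated concentration or IC50.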
# T1 sequence (P37288 whole entry): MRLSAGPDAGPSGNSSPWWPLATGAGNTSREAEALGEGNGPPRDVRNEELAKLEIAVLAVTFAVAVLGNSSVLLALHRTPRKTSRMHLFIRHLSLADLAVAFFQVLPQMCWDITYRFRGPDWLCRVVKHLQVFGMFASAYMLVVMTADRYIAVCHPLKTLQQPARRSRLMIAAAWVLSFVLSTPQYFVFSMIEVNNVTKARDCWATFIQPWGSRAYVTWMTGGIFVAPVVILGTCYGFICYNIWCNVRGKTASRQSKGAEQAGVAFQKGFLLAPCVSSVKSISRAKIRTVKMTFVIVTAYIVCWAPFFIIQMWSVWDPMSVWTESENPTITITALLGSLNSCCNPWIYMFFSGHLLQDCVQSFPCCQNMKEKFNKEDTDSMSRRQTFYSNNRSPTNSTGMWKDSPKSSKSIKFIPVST
Structure (SMILES),inhibition at 0.1 µM [1],melting point
"Cc1cc(C(=O)N2Cc3cccn3Cc3ccccc32)cc(C)c1-n1c(C)ccc1C [Example 30, [4-(2,5-Dimethyl-1H-pyrrol-1-yl)-3,5-dimethyl-phenyl][10,11-dihydro-5H-pyrrolo[2,1-c][1,4]benzodiazepin-10-yl]methanone]",8%,197 to 199 °C
"COc1cc(C(=O)N2Cc3ccc(C(=O)N4CCCN(C)CC4)n3Cc3ccccc32)ccc1-c1ccccc1C [Example 66, {10-[(2-Methoxy-2′-methyl[1,1′-biphenyl]-4-yl)carbonyl]-10,11-dihydro-5H-pyrrolo[2,1-c][1,4]benzodiazepin-3-yl}(4-methyl-1,4-diazepan-1-yl)methanone]",52%,–
"COc1cc(C(=O)N2Cc3ccc(C(=O)N4CCCN(C)CC4)n3Cc3ccccc32)ccc1-n1c(C)ccc1C [Example 307, {10-[4-(2,5-Dimethyl-1H-pyrrol-1-yl)-3-methoxybenzoyl]-10,11-dihydro-5H-pyrrolo[2,1-c][1,4]benzodiazepin-3-yl}(4-methyl-1,4-diazepan-1-yl)methanone]",-7%,–
"COc1cc(C(=O)N2Cc3ccc(C(=O)n4ccnc4)n3Cc3ccccc32)ccc1-c1ccccc1C [Example 290, 1H-Imidazol-1-yl-{10-[(2-methoxy-2′-methyl[1,1′-biphenyl]-4-yl)carbonyl]-10,11-dihydro-5H-pyrrolo[2,1-c][1,4]benzodiazepin-3-yl}methanone]",47%,–
"COc1cccc(-c2ccc(C(=O)N3Cc4ccc(C(=O)N5CCN(C)CC5)n4Cc4ccccc43)cc2OC)c1 [Example 57, {10-[(2,3′-Dimethoxy[1,1′-biphenyl]-4-yl)carbonyl]-10,11-dihydro-5H-pyrrolo[2,1-c][1,4]benzodiazepin-3-yl}(4-methyl-1-piperazinyl)methanone]",15%,–
"COc1cc(C(=O)N2Cc3ccc(C(=O)N4CCC(N5CCCCC5)CC4)n3Cc3ccccc32)ccc1-n1c(C)ccc1C [Example 311, {10-[4-(2,5-Dimethyl-1H-pyrrol-1-yl)-3-methoxy-benzoyl]-10,11-dihydro-5H-pyrrolo[2,1-c][1,4]benzodiazepin-3-yl}[4-(1-piperidinyl)-1-piperidinyl]-methanone]",-5%,–
"COc1cc(C(=O)N2Cc3ccc(C(=O)n4ccnc4)n3Cc3ccccc32)ccc1-c1cccc2ccccc12 [Example 291, 1H-Imidazol-1-yl-{10-[3-methoxy-4-(1-naphthyl)benzoyl]-10,11-dihydro-5H-pyrrolo[2,1-c][1,4]benzodiazepin-3-yl}methanone]",2%,–
"Cc1ccccc1-c1ccc(C(=O)N2Cc3ccc(C(=O)N4CCN(C)CC4)n3Cc3ccccc32)cc1 [Example 52, {10-[(2′-Methyl[1,1′-biphenyl]-4-yl)carbonyl]-10,11-dihydro-5H-pyrrolo[2,1-c][1,4]benzodiazepin-3-yl}(4-methyl-1-piperazinyl)methanone]",54%,–
"COc1cccc(-c2cc(OC)c(C(=O)N3Cc4ccc(C(=O)N5CCN(C)CC5)n4Cc4ccccc43)cc2Cl)c1 [Example 54, {10-[(6-Chloro-3,3′-dimethoxy[1,1′-biphenyl]-4-yl)carbonyl]-10,11-dihydro-5H-pyrrolo[2,1-c][1,4]benzodiazepin-3-yl}(4-methyl-1-piperazinyl)methanone]",-4%,–
"COc1cccc(-c2ccc(C(=O)N3Cc4ccc(C(=O)n5ccnc5)n4Cc4ccccc43)cc2C)c1 [Example 289, 1H-Imidazol-1-yl-{10-[(3′-methoxy-2-methyl[1,1′-biphenyl]-4-yl)carbonyl]-10,11-dihydro-5H-pyrrolo[2,1-c][1,4]benzodiazepin-3-yl}methanone]",6%,–
"COc1cc(C(=O)N2Cc3ccc(C(=O)N4CCN(C)CC4)n3Cc3ccccc32)ccc1-n1c(C)ccc1C [Example 306, {10-[4-(2,5-Dimethyl-1H-pyrrol-1-yl)-3-methoxybenzoyl]-10,11-dihydro-5H-pyrrolo[2,1-c][1,4]benzodiazepin-3-yl}(4-methyl-1-piperazinyl)methanone]",0%,–
"COc1cc(C(=O)N2Cc3ccc(C(=O)NCCC4CCCN4C)n3Cc3ccccc32)ccc1-n1c(C)ccc1C (stereo not drawn) [Example 315, 10-[4-(2,5-Dimethyl-1H-pyrrol-1-yl)-3-methoxybenzoyl]-N-[2-(1-methyl-2-pyrrolidinyl)ethyl]-10,11-dihydro-5H-pyrrolo[2,1-c][1,4]benzodiazepine-3-carboxamide]",7%,–
"Cc1ccccc1-c1ccc(C(=O)N2Cc3ccc(C(=O)NCCCN(C)C)n3Cc3ccccc32)cc1 [Example 76, N-[3-(Dimethylamino)propyl]-10-[(2′-methyl[1,1′-biphenyl]-4-yl)carbonyl]-10,11-dihydro-5H-pyrrolo[2,1-c][1,4]benzodiazepine-3-carboxamide]",58%,–
"COc1ccccc1-c1ccc(C(=O)N2Cc3ccc(C(=O)NCCCN(C)C)n3Cc3ccccc32)cc1 [Example 75, N-[3-(Dimethylamino)propyl]-10-[(2′-methoxy[1,1′-biphenyl]-4-yl)carbonyl]-10,11-dihydro-5H-pyrrolo[2,1-c][1,4]benzodiazepine-3-carboxamide]",27%,–
"COc1ccccc1-c1ccc(C(=O)N2Cc3ccc(C(=O)N[C@@H]4CN5CCC4CC5)n3Cc3ccccc32)cc1OC [Example 300, N-[(3S)-1-Azabicyclo[2.2.2]oct-3-yl]-10-[(2,2′-dimethoxy[1,1′-biphenyl]-4-yl)carbonyl]-10,11-dihydro-5H-pyrrolo[2,1-c][1,4]benzodiazepine-3-carboxamide]",-2%,–
"COc1cc(C(=O)N2Cc3ccc(C(=O)NCCCN(C)C)n3Cc3ccccc32)ccc1-n1c(C)ccc1C [Example 308, N-[3-(Dimethylamino)propyl]-10-[4-(2,5-dimethyl-1H-pyrrol-1-yl)-3-methoxybenzoyl]-10,11-dihydro-5H-pyrrolo[2,1-c][1,4]benzodiazepine-3-carboxamide]",-12%,–
"Cc1ccccc1-c1ccc(C(=O)N2Cc3ccc(C(=O)N4CCN(CCCN(C)C)CC4)n3Cc3ccccc32)cc1C [Example 247, {4-[3-(Dimethylamino)propyl]-1-piperazinyl}{10-[(2,2′-dimethyl[1,1′-biphenyl]-4-yl)carbonyl]-10,11-dihydro-5H-pyrrolo[2,1-c][1,4]benzodiazepin-3-yl}methanone]",62%,–
"CN1CCCN(C(=O)c2ccc3n2Cc2ccccc2N(C(=O)c2ccc(-c4cccc5ccccc45)cc2Cl)C3)CC1 [Example 71, {10-[2-Chloro-4-(1-naphthyl)benzoyl]-10,11-dihydro-5H-pyrrolo[2,1-c][1,4]benzodiazepin-3-yl}(4-methyl-1,4-diazepan-1-yl)methanone]",4%,–
"CC(C)N1CCN(C(=O)c2ccc3n2Cc2ccccc2N(C(=O)c2ccc(-c4cccc5ccccc45)cc2Cl)C3)CC1 [Example 243, {10-[2-Chloro-4-(1-naphthyl)benzoyl]-10,11-dihydro-5H-pyrrolo[2,1-c][1,4]benzodiazepin-3-yl}(4-isopropyl-1-piperazinyl)methanone]",5%,–
"COc1cccc(-c2ccc(C(=O)N3Cc4ccc(C(=O)N5CCN(CCCN(C)C)CC5)n4Cc4ccccc43)cc2OC)c1 [Example 255, {10-[(2,3′-Dimethoxy[1,1′-biphenyl]-4-yl)carbonyl]-10,11-dihydro-5H-pyrrolo[2,1-c][1,4]benzodiazepin-3-yl}{4-[3-(dimethylamino)propyl]-1-piperazinyl}methanone]",53%,–
"COc1cccc(-c2cc(OC)c(C(=O)N3Cc4ccc(C(=O)N5CCN(CCCN(C)C)CC5)n4Cc4ccccc43)cc2Cl)c1 [Example 252, {10-[(6-Chloro-3,3′-dimethoxy[1,1′-biphenyl]-4-yl)carbonyl]-10,11-dihydro-5H-pyrrolo[2,1-c][1,4]benzodiazepin-3-yl}{4-[3-(dimethylamino)propyl]-1-piperazinyl}methanone]",8%,–
"Cc1cc(C(=O)N2Cc3ccc(C(=O)n4ccnc4)n3Cc3ccccc32)ccc1-c1ccccc1C(F)(F)F [Example 294, 1H-Imidazol-1-yl(10-{[2-methyl-2′-(trifluoromethyl)[1,1′-biphenyl]-4-yl]carbonyl}-10,11-dihydro-5H-pyrrolo[2,1-c][1,4]benzodiazepin-3-yl)methanone]",-3%,–
"COc1cc(C(=O)N2Cc3ccc(C(=O)NCCCn4ccnc4)n3Cc3ccccc32)ccc1-n1c(C)ccc1C [Example 312, 10-[4-(2,5-Dimethyl-1H-pyrrol-1-yl)-3-methoxybenzoyl]-N-[3-(1H-imidazol-1-yl)propyl]-10,11-dihydro-5H-pyrrolo[2,1-c][1,4]benzodiazepine-3-carboxamide]",7%,–
"COc1ccccc1-c1ccc(C(=O)N2Cc3ccc(C(=O)N[C@H]4CN5CCC4CC5)n3Cc3ccccc32)cc1C [Example 298, N-[(3R)-1-Azabicyclo[2.2.2]oct-3-yl]-10-[(2′-methoxy-2-methyl[1,1′-biphenyl]-4-yl)carbonyl]-10,11-dihydro-5H-pyrrolo[2,1-c][1,4]benzodiazepine-3-carboxamide]",20%,–
"COc1cc(C(=O)N2Cc3ccc(C(=O)N4CCC(N5CCCC5)CC4)n3Cc3ccccc32)ccc1-n1c(C)ccc1C [Example 313, {10-[4-(2,5-Dimethyl-1H-pyrrol-1-yl)-3-methoxybenzoyl]-10,11-dihydro-5H-pyrrolo[2,1-c][1,4]benzodiazepin-3-yl}[4-(1-pyrrolidinyl)-1-piperidinyl]methanone]",2%,–
"COc1cc(-c2ccccc2C)c(Cl)cc1C(=O)N1Cc2ccc(C(=O)NCCCN(C)C)n2Cc2ccccc21 [Example 78, 10-[(6-Chloro-3-methoxy-2′-methyl[1,1′-biphenyl]-4-yl)carbonyl]-N-[3-(dimethylamino)propyl]-10,11-dihydro-5H-pyrrolo[2,1-c][1,4]benzodiazepine-3-carboxamide]",-3%,–

# — US7109193B2, “Tricyclic diazepines tocolytic oxytocin receptor antagonists” (Wyeth, priority 2001, dated 2006)
